Six compounds from ChEMBL document CHEMBL1131760, “Substrate-selective mechanisms in biocatalysis demonstrated with a versatile and efficient aldolase antibody” (Bioorg Med Chem Lett, 1999) can be followed below.

The nature of series [1]: Catalytic constant from Lineweaver-Burke analysis for antibody catalyzed retrograde aldol reaction with the compound. The series is classed as ADME.
Series [2] in a line: Michaelis constant (Km) was determined. The series is classed as ADME.

For orientation: Km means the concentration of substrate that gives half-maximal velocity.

Consider `CC(=O)CC(O)/C=C/c1ccc(C(F)(F)F)cc1` (configuration not stated), for which, in series [1], the k cat stood at 0.00227 s⁻¹. Besides, the Km in series [2] worked out at 239 µM.

In turn, `CC(=O)CC(O)/C=C/c1ccccc1` (configuration not stated) showed a k cat in series [1] of 0.00145 s⁻¹. For the same compound, the Km in series [2] came out at 415 µM.

As for `CC(=O)CC(O)/C=C/c1ccc(N(C)C)cc1` (configuration not stated), in series [1], the k cat was determined as 0.042 s⁻¹. Moreover, the Km in series [2] was 1250 µM.

Take `COc1ccc(/C=C/C(O)CC(C)=O)cc1` (configuration not stated): in series [1], the k cat was determined as 0.0067 s⁻¹. Besides, the Km in series [2] was found to be 522 µM.

`CC(=O)CC(O)/C=C/c1ccc([N+](=O)[O-])cc1` (configuration not stated) displayed a k cat in series [1] of 0.0013 s⁻¹. Further, the Km in series [2] is 140 µM.

Take `CC(=O)CC(O)/C=C/c1ccc(Cl)cc1` (configuration not stated): in series [1], the k cat turned out to be 0.00282 s⁻¹. For the same compound, the Km in series [2] was 324 µM.
